Measurements taken from ChEMBL document CHEMBL3271942, “(Vinylaryloxy)acetic acids. A new class of diuretic agents. 2. (4-(3-Oxo-1-alkenyl)phenoxy)acetic acids” (1976).

Columns and labels:
[1] = test system: Canis familiaris; experiment: Diuretic activity in mongrel dog assessed as excretion of chloride ion at 10 mg/kg, iv measured after 15 and 45 mins (reference value: 4 to 64 uequiv/min); assay type: functional, Canis lupus familiaris, Urine
[2] = test system: Canis familiaris; experiment: Diuretic activity in mongrel dog assessed as excretion of potassium ion at 10 mg/kg, iv measured after 15 and 45 mins (reference value: 16 to 37 uequiv/min); assay type: functional, Canis lupus familiaris, Urine
[3] = test system: Canis familiaris; experiment: Diuretic activity in mongrel dog assessed as urine volume at 10 mg/kg, iv measured after 15 and 45 mins (reference value: 1 to 2 ml/min); assay type: functional, Canis lupus familiaris
[4] = test system: Canis familiaris; experiment: Diuretic activity in mongrel dog assessed as excretion of sodium ion at 10 mg/kg, iv measured after 15 and 45 mins (reference value: 13 to 54 uequiv/min); assay type: functional, Canis lupus familiaris, Urine
[5] = test system: Canis familiaris; experiment: Diuretic activity in mongrel dog assessed as excretion of sodium ion at 5 mg/kg, iv measured after 15 and 45 mins (reference value: 5 to 99 uequiv/min); assay type: functional, Canis lupus familiaris, Urine
[6] = test system: Canis familiaris; experiment: Diuretic activity in mongrel dog assessed as urine volume at 5 mg/kg, iv measured after 15 and 45 mins (reference value: 1 to 2 ml/min); assay type: functional, Canis lupus familiaris
[7] = test system: Canis familiaris; experiment: Diuretic activity in mongrel dog assessed as excretion of potassium ion at 5 mg/kg, iv measured after 15 and 45 mins (reference value: 15 to 55 uequiv/min); assay type: functional, Canis lupus familiaris, Urine
[8] = test system: Canis familiaris; experiment: Diuretic activity in mongrel dog assessed as excretion of chloride ion at 5 mg/kg, iv measured after 15 and 45 mins (reference value: 7 to 13 uequiv/min); assay type: functional, Canis lupus familiaris, Urine
[9] = test system: Canis familiaris; experiment: Diuretic activity in mongrel dog assessed as excretion of potassium ion at 0.1 mg/kg, iv measured after 15 and 45 mins (reference value: 14 to 35 uequiv/min); assay type: functional, Canis lupus familiaris, Urine
[10] = test system: Canis familiaris; experiment: Diuretic activity in mongrel dog assessed as urine volume at 0.1 mg/kg, iv measured after 15 and 45 mins (reference value: 1 to 3 ml/min); assay type: functional, Canis lupus familiaris
[11] = test system: Canis familiaris; experiment: Diuretic activity in mongrel dog assessed as excretion of chloride ion at 0.1 mg/kg, iv measured after 15 and 45 mins (reference value: 14 to 48 uequiv/min); assay type: functional, Canis lupus familiaris, Urine
[12] = test system: Canis familiaris; experiment: Diuretic activity in mongrel dog assessed as excretion of sodium ion at 0.1 mg/kg, iv measured after 15 and 45 mins (reference value: 36 to 73 uequiv/min); assay type: functional, Canis lupus familiaris, Urine
[13] = test system: Canis familiaris; experiment: Diuretic activity in mongrel dog assessed as urine volume at 1 mg/kg, iv measured after 15 and 45 mins (reference value: 1 to 4 ml/min); assay type: functional, Canis lupus familiaris
[14] = test system: Canis familiaris; experiment: Diuretic activity in mongrel dog assessed as excretion of potassium ion at 1 mg/kg, iv measured after 15 and 45 mins (reference value: 46 to 28 uequiv/min); assay type: functional, Canis lupus familiaris, Urine
[15] = test system: Canis familiaris; experiment: Diuretic activity in mongrel dog assessed as excretion of chloride ion at 1 mg/kg, iv measured after 15 and 45 mins (reference value: 10 to 26 uequiv/min); assay type: functional, Canis lupus familiaris, Urine
[16] = test system: Canis familiaris; experiment: Diuretic activity in mongrel dog assessed as excretion of sodium ion at 1 mg/kg, iv measured after 15 and 45 mins (reference value: 26 to 58 uequiv/min); assay type: functional, Canis lupus familiaris, Urine
[17] = test system: Canis familiaris; experiment: Diuretic activity in mongrel dog assessed as excretion of chloride ion per 6 hrs at 1 mg/kg, po (reference value: 2 mequiv/min); assay type: functional, Canis lupus familiaris, Urine
[18] = test system: Canis familiaris; experiment: Diuretic activity in mongrel dog assessed as urine volume per 6 hrs at 2 mg/kg, po (reference value: 180 ml); assay type: functional, Canis lupus familiaris
[19] = test system: Canis familiaris; experiment: Diuretic activity in mongrel dog assessed as excretion of potassium ion per 6 hrs at 2 mg/kg, po (reference value: 1 mequiv/min); assay type: functional, Canis lupus familiaris, Urine
[20] = test system: Canis familiaris; experiment: Diuretic activity in mongrel dog assessed as excretion of sodium ion per 6 hrs at 2 mg/kg, po (reference value: 2 mequiv/min); assay type: functional, Canis lupus familiaris, Urine
[21] = test system: Canis familiaris; experiment: Diuretic activity in mongrel dog assessed as excretion of potassium ion per 6 hrs at 1 mg/kg, po (reference value: 1 mequiv/min); assay type: functional, Canis lupus familiaris, Urine
[22] = test system: Canis familiaris; experiment: Diuretic activity in mongrel dog assessed as excretion of chloride ion per 6 hrs at 2 mg/kg, po (reference value: 2 mequiv/min); assay type: functional, Canis lupus familiaris, Urine
[23] = test system: Canis familiaris; experiment: Diuretic activity in mongrel dog assessed as excretion of sodium ion per 6 hrs at 1 mg/kg, po (reference value: 2 mequiv/min); assay type: functional, Canis lupus familiaris, Urine
[24] = test system: Canis familiaris; experiment: Diuretic activity in mongrel dog assessed as urine volume per 6 hrs at 1 mg/kg, po (reference value: 180 ml); assay type: functional, Canis lupus familiaris
[25] = test system: Canis familiaris; experiment: Diuretic activity in mongrel dog assessed as excretion of potassium ion at 25 mg/kg, iv measured after 15 and 45 mins (reference value: 42 uequiv/min); assay type: functional, Canis lupus familiaris, Urine
[26] = test system: Canis familiaris; experiment: Diuretic activity in mongrel dog assessed as urine volume at 25 mg/kg, iv measured after 15 and 45 mins (reference value: 5 ml/min); assay type: functional, Canis lupus familiaris
[27] = test system: Canis familiaris; experiment: Diuretic activity in mongrel dog assessed as excretion of sodium ion at 25 mg/kg, iv measured after 15 and 45 mins (reference value: 42 uequiv/min); assay type: functional, Canis lupus familiaris, Urine
[28] = test system: Canis familiaris; experiment: Diuretic activity in mongrel dog assessed as excretion of chloride ion at 25 mg/kg, iv measured after 15 and 45 mins (reference value: 6 uequiv/min); assay type: functional, Canis lupus familiaris, Urine

Row | Compound | Activity [1] | Activity [2] | Activity [3] | Activity [4] | Activity [5] | Activity [6] | Activity [7] | Activity [8] | further results
1 | CC(=O)/C=C/c1ccc(OCC(=O)O)cc1 | 55 uEq/min | 50 uEq/min | 5 mL/min | 91 uEq/min | – | – | – | – | –
2 | CC(=O)/C=C/c1ccc(OCC(=O)O)c(Cl)c1Cl | – | – | – | – | 911 uEq/min | 8 mL/min | 76 uEq/min | 1078 uEq/min | –
3 | COc1cc(/C=C/C(C)=O)ccc1OCC(=O)O | – | – | – | – | 13 uEq/min | 1 mL/min | 36 uEq/min | 27 uEq/min | –
4 | O=C(O)COc1ccc(/C=C2\CCC2=O)c(Cl)c1Cl | 822 uEq/min | 93 uEq/min | 8 mL/min | 833 uEq/min | – | – | – | – | Activity [9]: 89 uEq/min; Activity [10]: 9 mL/min; Activity [11]: 408 uEq/min; Activity [12]: 393 uEq/min
5 | O=C(O)COc1ccc(/C=C2\CCCC2=O)c(Cl)c1Cl | – | – | – | – | – | – | – | – | Activity [13]: 4 mL/min; Activity [14]: 74 uEq/min; Activity [15]: 330 uEq/min; Activity [16]: 298 uEq/min
6 | CC(=O)/C(C)=C/c1ccc(OCC(=O)O)c(Cl)c1Cl | – | – | – | – | 1096 uEq/min | 10 mL/min | 132 uEq/min | 1140 uEq/min | Activity [17]: 9 milliequivalent; Activity [18]: 506 mL; Activity [19]: 3 milliequivalent; Activity [20]: 16 milliequivalent; Activity [21]: 5 milliequivalent; Activity [22]: 21 milliequivalent; Activity [23]: 9 milliequivalent; Activity [24]: 422 mL
7 | CCC(=O)/C(C)=C/c1ccc(OCC(=O)O)c(Cl)c1Cl | 67 uEq/min | 42 uEq/min | 2 mL/min | 79 uEq/min | – | – | – | – | –
8 | CC(=O)/C=C/c1ccc(OCC(=O)O)cc1Cl | 258 uEq/min | 79 uEq/min | 3 mL/min | 265 uEq/min | – | – | – | – | –
9 | CCC(=O)/C=C/c1ccc(OCC(=O)O)c(Cl)c1Cl | 1089 uEq/min | 118 uEq/min | 8 mL/min | 973 uEq/min | – | – | – | – | –
10 | C/C(C=O)=C\c1ccc(OCC(=O)O)c(Cl)c1Cl | – | – | – | – | 140 uEq/min | 3 mL/min | 51 uEq/min | 130 uEq/min | Activity [25]: 86 uEq/min; Activity [26]: 5 mL/min; Activity [27]: 449 uEq/min; Activity [28]: 542 uEq/min
11 | O=C(O)COc1ccc(/C=C2\CCCCC2=O)c(Cl)c1Cl | – | – | – | – | 1306 uEq/min | 12 mL/min | 119 uEq/min | 1340 uEq/min | –
12 | CC(=O)C(=Cc1ccc(OCC(=O)O)c(Cl)c1Cl)C(C)=O | – | – | – | – | – | – | – | – | Activity [9]: 87 uEq/min; Activity [13]: 11 mL/min; Activity [14]: 104 uEq/min; Activity [10]: 9 mL/min; Activity [12]: 984 uEq/min
13 | C=C(CC)C(=O)c1ccc(OCC(=O)O)c(Cl)c1Cl [ETHACRYNIC ACID] | 3324 uEq/min | 194 uEq/min | 22 mL/min | 2989 uEq/min | – | – | – | – | Activity [17]: 26 milliequivalent; Activity [13]: 6 mL/min; Activity [14]: 52 uEq/min; Activity [15]: 244 uEq/min; Activity [21]: 5 milliequivalent; Activity [16]: 188 uEq/min; Activity [23]: 21 milliequivalent; Activity [24]: 560 mL
14 | NS(=O)(=O)c1cc(C(=O)O)c(NCc2ccco2)cc1Cl [FUROSEMIDE] | – | – | – | – | – | – | – | – | Activity [17]: 18 milliequivalent; Activity [21]: 4 milliequivalent; Activity [23]: 19 milliequivalent; Activity [24]: 624 mL
